In one experiment the target is AMPA receptor. Description: AMPA receptor binding affinity (in vitro). Conditions: Table 1. From the text:
In Vitro activity (receptor affinity):
(§1) The test results obtained by testing the compounds of the invention for their in-vitro AMPA receptor affinity and their ability to inhibit GABA release are presented in the following table: […]

In experiment [1] the test system is cultured cerebral cortex neurons. The experiment can be described thus: 3H-GABA release, cultured cerebral cortex neurons. It counts as cell-based. The note with it: Cerebral cortex neuron; inhibition of stimulated 3H-GABA release, mouse cortical neurons, Table 1.
Source text: The compounds of the invention have also been tested for their ability to inhibit GABA release from cultured cerebral cortex neurons in the following test:
^3 H-GABA Release, Cortical Neurons
Background: Neurons which express receptors for excitatory amino acids can be depolarized by such compounds and this depolarization will ultimately lead to a release of transmitter substance from the neurons. Cultured neurons obtained from 15-day-old mouse embryo cortex are mainly GABAergic and express all types of excitatory amino acid receptors. This means that they can be stimulated by high potassium or by the excitatory amino acids, NMDA, AMPA and kainate to release their neurotransmitter GABA.
^3 H-GABA may be used to label the GABA transmitter pool in the neurons and the release of ^3 H-GABA from the neurons may be used as a simple functional model for studies of the effects of excitatory amino acids and their antagonists.
Method: Cerebral cortices of 16-day-old mouse embryos are chopped in 0.4×0.4 mm cubes. The tissue is dissociated by mild trypsinization (0.1% (wt/vol) trypsin, 37° C., 15 min) and subsequently inoculated into poly-L-lysine-coated 3-cm Petri dishes containing a slightly modified DMEM (24.5 mM KCI, 30 mM glucose) supplemented with p-aminobenzoate (7 μM), insulin (100 mU/L) and 10% (vol/vol) horse serum. Cells are maintained in culture for 5-7 days with the addition of the antimitotic agent cytosine arbinoside (40 μM) from day 2 in vitro to prevent glial profileration. For further details and references, see Drejer et al. Exp. Brain Res. 47, 259 (1982).
Release experiments are performed using the model described by Drejer et al. Life Sci. 38, 2077 (1986). Cerebral cortex neurons cultured in Petri dishes (30 mm) are added 100 μM γ-vinyl-GABA one hour before the experiment in order to inhibit degradation of GABA in the neurons. 30 min before the experiment 5 μCi ^3 H-GABA is added to each culture and after this preloading period the cell monolayer at the bottom of the dish is covered with a piece of nylon mesh to protect the cells against mechanical damage and to facilitate dispersion of medium over the cell layer. The preloading medium is removed and the Petri dishes are placed in a superfusion system consisting of a peristaltic pump continously delivering thermostated 37° C. superfusion medium HEPES buffered saline (HBS): 10 mM HEPES, 135 mM NaCl, 5 mM KCI, 0.6 mM MgSO4, 1.0 mM CaCl2 and 6 mM D-glucose; pH 7.4) from a reservoir to the top of the slightly tilted Petri dish. The medium is continously collected from the lower part of the dish and delivered to a fraction collector. Initially, the cells are superfused with HBS for 15 min (flow rate 2 ml/min). Then the cells are stimulated for 30 sec every 4 min by changing the superfusion medium from HBS to a corresponding medium containing […].
Test subtances are dissolved in 50% DMSO, 48% ethanol. The final DMSO and ethanol concentration in the assay must not exceed 0.1%.
The stimulated release of ^3 H-GABA (cpm) are corrected for the mean basal release(cpm) before and after stimulation.
The stimulated release in the presence of antagonists are expressed relative to the stimulated release and the IC50 value for the antagonist is calculated (the concentration (μM) of the test substance which inhibit 50% of the stimulated ^3 H-GABA release).
as §1

Experiment [2] concerns AMPA-induced clonic seizures in NMRI mice. Description: AMPA-induced clonic seizures. Conditions: Mus musculus; i.v. 5 min (or p.o. 30 min) before 0.3 μg icv AMPA, 10 female NMRI mice per dose; route of the value not given; read-out: ED50 (dose inhibiting 50% of the mice from having clonic seizures). It is filed as in vivo. How it is done: The compound, 8-methyl-5-(4(N,N-dimethylsulphamoyl)-phenyl)-6,7,8,9-tetrahydro-1H-pyrrolo[3,2-h]isoquinoline-2,3-dione-3-oxime has also been tested for its ability to inhibit the clonic seizures induced by AMPA in the following test:
In Vivo activity (AMPA-induced clonic seizures)
AMPA given icv (intracerebroventricular) (15 μg/kg) to NMRI mice induces clonic seizures which should be inhibited by non-NMDA receptor antagonists. Method: Test compound was given i.v. 5 min (or p.o. 30 min) before a 0.3 μg icv administration of AMPA to 10 female NMRI mice (weighing 24-26 g) per dose. The number of mice experiencing clonic seizures within the next 5 min was noted. An ED50 value was calculated as the dose inhibiting 50% of the mice from having clonic seizures.

Experiment [3] has as its system gerbil hippocampus CA1-layer, global ischaemia. The experiment can be described thus: Transient Forebrain Ischemia Model (2-VO Gerbils). It counts as in vivo. The note with it: 30 mg/kg i.p. 30, 60 and 90 min post occlusion (total 90 mg/kg); ischaemic score 4 days later; Mann-Whitney test. How it is done:
The compound, 8-methyl-5-(4-(N,N-dimethylsulphamoyl)-phenyl)-6,7,8,9-tetrahydro-1H-pyrrolo[3,2-h]isoquinoline-2,3-dione-3-oxime has also been tested in the following animal model of global ischaemia:
Transient Forebrain Ischemia Model (2-VO Gerbils)
Gerbils were anaesthetized with halothane, right and left carotid arteries located and occluded for 4 minutes. Animals were kept warm before and after the operation using heating lamps. During the operation the gerbils were placed on heating plates, body temperature controlled and maintained at 37°±0.5° C. Postocclusion, the gerbils were divided in two groups. One group received 30 mg/kg test compound i.p. 30, 60, and 90 min post occlusion (total dose was 90 mg/kg). The control group received 5.5% glucose i.p. at the same time intervals. Four days later, the animals were sacrificed, brains removed and cooled to -70° C. Thereafter, the brains were sectioned in […] thick sections of which 5-7 with hippocampal tissue were selected and stained with hematoxylin eosine (HE).
Based upon the degree of hippocampal damage, each hippocampus was categorised into one of four groups (Group 1: no damage in the CA1-layer; Group 2: the CA1-layer partly damaged; Group 3: the CA1-layer completely damaged; and Group 4: damage in more than just the CA1-layer). […]

The source of these data is patent US5801174A, “Fused indole and quinoxaline derivatives, their preparation and use” (Neurosearch A/S, priority 1994, dated 1998).

In general, IC50 refers to the concentration that gives 50% inhibition. The low end stands for higher potency, the high end for lower potency. For orientation: ED50 means the dose that gives a 50% effect, or the effect in half of the subjects.

Regarding `CN1CCc2c(-c3ccc(S(=O)(=O)N(C)C)cc3)cc3c(c2C1)NC(=O)C3=NO` [8-methyl-5-(4-(N,N-dimethylsulphamoyl)-phenyl)-6,7,8,9-tetrahydro-1H-pyrrolo[3,2-h]-isoquinoline-2,3-dione-3-oxime], the figures for the concentration for half-maximal inhibition (IC50) (on AMPA receptor; in experiment [1]) were 0.02 µM and 0.12 µM, respectively. Further, in experiment [2], the 50% effective dose (ED50) came to 3 mg/kg. In addition, the “neuroprotective effect in the gerbil 2-VO model” value in experiment [3] was “significant neuroprotective effect”.

As for `CN1CCc2c(-c3ccc(S(=O)(=O)N4CCCCC4)cc3)cc3c(c2C1)NC(=O)C3=NO` [8-methyl-5-(4-(piperidinosulfonyl)-phenyl)-6,7,8,9-tetrahydro-1H-pyrrolo[3,2-h]-isoquinoline-2,3-dione-3-oxime], the IC50 on AMPA receptor came out at 0.027 µM; in experiment [1], 0.24 µM.

For `CN1CCc2c(-c3ccc(S(N)(=O)=O)cc3)cc3c(c2C1)NC(=O)C3=NO` [8-methyl-5-(4-(sulphamoyl)phenyl)-6,7,8,9-tetrahydro-1H-pyrrolo[3,2-h]isoquinoline-2,3-dione-3-oxime], the values for the IC50 (at AMPA receptor; in experiment [1]) were 0.025 µM and 0.27 µM, respectively.
